Measured values: ChEMBL document CHEMBL1152841, “Conformationally constrained analogues of N'-(4-tert-butylbenzyl)-N-(4-methylsulfonylaminobenzyl)thiourea as TRPV1 antagonists” (Eur J Med Chem, 2009)

Experiments:
[1] = molecular target: T1, Transient receptor potential cation channel subfamily V member 1 (Rattus norvegicus, UniProt O35433); experiment: Displacement of [3H]resiniferatoxin from rat TRPV1 expressed in CHO cells by scintillation counting; type: cell-based
[2] = molecular target: Transient receptor potential cation channel subfamily V member 1 (Rattus norvegicus) (UniProt O35433); experiment: Agonist activity at rat TRPV1 expressed in CHO cells by 45Ca2+ uptake assay relative to capsaicin; type: functional, cell-based
Chain of Transient receptor potential cation channel subfamily V member 1 (Rattus norvegicus) (O35433 whole entry): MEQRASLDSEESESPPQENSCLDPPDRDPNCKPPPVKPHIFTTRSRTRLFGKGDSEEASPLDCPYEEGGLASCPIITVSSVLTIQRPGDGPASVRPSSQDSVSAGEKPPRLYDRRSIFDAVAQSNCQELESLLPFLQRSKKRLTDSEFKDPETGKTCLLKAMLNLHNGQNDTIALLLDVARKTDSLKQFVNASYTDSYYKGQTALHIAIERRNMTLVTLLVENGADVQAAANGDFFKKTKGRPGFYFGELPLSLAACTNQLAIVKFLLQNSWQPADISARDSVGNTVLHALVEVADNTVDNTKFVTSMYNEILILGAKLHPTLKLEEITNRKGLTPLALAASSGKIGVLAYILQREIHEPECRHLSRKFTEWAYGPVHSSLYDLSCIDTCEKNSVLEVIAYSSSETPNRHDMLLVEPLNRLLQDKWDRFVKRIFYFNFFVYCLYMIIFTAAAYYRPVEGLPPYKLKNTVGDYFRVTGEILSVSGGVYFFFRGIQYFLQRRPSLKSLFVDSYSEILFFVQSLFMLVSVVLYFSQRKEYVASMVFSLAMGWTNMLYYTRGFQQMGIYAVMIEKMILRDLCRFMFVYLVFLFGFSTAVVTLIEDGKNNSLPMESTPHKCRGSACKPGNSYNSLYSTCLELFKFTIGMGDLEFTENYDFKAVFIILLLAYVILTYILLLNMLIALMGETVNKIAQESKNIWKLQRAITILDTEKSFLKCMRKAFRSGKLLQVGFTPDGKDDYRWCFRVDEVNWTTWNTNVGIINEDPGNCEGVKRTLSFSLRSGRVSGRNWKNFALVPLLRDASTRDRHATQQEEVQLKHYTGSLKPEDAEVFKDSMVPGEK

[3] = molecular target: T1, Transient receptor potential cation channel subfamily V member 1; experiment: Antagonist activity at rat TRPV1 expressed in CHO cells assessed as capsaicin-stimulated 45Ca2+ uptake; type: functional, cell-based
[4] = molecular target: T1, Transient receptor potential cation channel subfamily V member 1; experiment: Agonist activity at rat TRPV1 expressed in CHO cells by 45Ca2+ uptake assay; type: functional, cell-based

T1 sequence (O35433 whole entry): as above

Compound	Ki [1]	Activity [2]	Ki [3]	EC50 [4]
COc1cc2c(cc1NS(C)(=O)=O)CCCC2NC(=S)NCc1ccc(C(C)(C)C)cc1 (centres undefined)	6.9 µM	14%		
CC(C)(C)c1ccc(CNC(=S)NC2CCc3cc(NS(C)(=O)=O)ccc32)cc1 (centres undefined)	0.66 µM		0.74 µM	
COc1c(NS(C)(=O)=O)ccc2c1CCC2NC(=S)NCc1ccc(C(C)(C)C)cc1 (centres undefined)	1.82 µM		1.69 µM	
COc1cc(CNC(=S)NCc2ccc(C(C)(C)C)cc2)ccc1NS(C)(=O)=O		17%		0.0324 µM
CC(C)(C)c1ccc(CNC(=S)NC2CCCc3cc(NS(C)(=O)=O)ccc32)cc1 (centres undefined)	1.59 µM		2.64 µM	
COc1c(NS(C)(=O)=O)ccc2c1CCCC2NC(=S)NCc1ccc(C(C)(C)C)cc1 (centres undefined)	1.75 µM		4.7 µM	
COc1cc2c(cc1NS(C)(=O)=O)CCC2NC(=S)NCc1ccc(C(C)(C)C)cc1 (centres undefined)	3.37 µM		25 µM	
